Structures are written as SMILES. Where two headings read alike, the source gives them in different places. Where only a bound is given, the exact number is not on record here.

For data set [1], the system named is RSV A2. The experiment in a line: RSV plaque reduction assay. Type of data set: cell-based, respiratory syncytial virus (RSV). Particulars: human respiratory syncytial virus, HepG2, Hep-G2 cells, mean of at least two experiments. On the procedure: (§1) Compounds were subjected to RSV plaque reduction assays according to the following protocol. Plaque EC50 and cell toxicity CC50 values are a mean of at least two experiments and figures are rounded to whole units.
Hep-G2 cells (ECACC, 85011430) were passaged in flasks and seeded in 24-well plates in DMEM containing antibiotics and supplemented with 10% FBS. During inoculation and subsequent incubation, cells were cultured in DMEM containing 2% FBS. 100 plaque forming unit/well of RSV (RSV A2 ECACC, 0709161v) was mixed with eight serial dilutions of compound. Subsequently, 100 μL of the virus/compound mixtures was added to confluent Hep-G2 cell monolayers. The cells and virus/compound mixtures were incubated at 37° C. in a humidified 5% CO2 incubator for 2 h prior to removal of the inoculum and addition of 1 mL of overlay (DMEM containing 2% FBS and 0.8% CMC) containing compound dilutions. The cells and were incubated at 37° C. in a humidified 5% CO2 incubator for 2 days.
Cells were washed with PBS before adding 75/25% […] EtOH/MeOH, for 3 min. Fixative was removed and plates were washed with PBS. A pre-titrated amount of the primary antibody was added in 200 μL PBS/2% milk powder, and plates incubated for 90 min at 37° C. The plates were washed 3 times with PBS/0.05% Tween20 before addition of rabbit anti-goat horse radish peroxidase in 200 μL PBS/2% milk powder, and incubated for 1 h at 37° C. Following three wash steps with PBS/0.05% Tween20, 200 μL ready-to-use TrueBlue was added and plates were incubated at rt for 10-15 min before washing with water. After removal of water, plates were air-dried in the dark.
(§2) Plates were scanned and analysed using the Immunospot S6 Macro analyser, which is equipped with BioSpot analysis software for counting immunostained plaques (virospots). Plaque counts were used to calculate % c infection relative to the mean of the plaque count in the virus control wells for RSV. The EC50 value was calculated as 50% reduction in signal, respectively, by interpolation of inhibition curves fitted with a 4-parameter nonlinear regression with a variable slope in Dotmatics. Plaque EC50 and cell toxicity CC50 values are a mean of at least two experiments and figures are rounded to whole units.

Data set [2] is described as follows: in vitro. The data set is classed as in vitro ADME. The following applies: microsomes, pH 7.4, 1 μM compound, 0.5 mg/mL protein, read-out: Liver Microsomal Stability t1/2. The method, then:
Compounds were subjected to the following assays to investigate liver microsomal stability and hepatocyte stability.
Microsomal Incubation: Experimental Procedure
Pooled liver microsomes were purchased from a reputable commercial supplier and stored at −80° C. prior to use. Microsomes (final protein concentration 0.5 mg/mL), 0.1 M phosphate buffer pH 7.4 and test compound (final substrate concentration 1 μM; final DMSO concentration 0.25%) were pre-incubated at 37° C. prior to the addition of NADPH (final concentration 1 mM) to initiate the reaction. The final incubation volume was 50 μL. A control incubation was included for each compound tested where 0.1 M phosphate buffer pH 7.4 was added instead of NADPH (minus NADPH). Two control compounds were included with each species. All incubations were performed singularly for each test compound. Each compound was incubated for 0, 5, 15, 30 and 45 min. The control (minus NADPH) was incubated for 45 min only. The reactions were stopped by transferring incubate into acetonitrile at the appropriate time points, in a 1:3 ratio. The termination plates are centrifuged at 3,000 rpm for 20 min at 4° C. to precipitate the protein. Following protein precipitation, the sample supernatants were combined in cassettes of up to 4 compounds, internal standard added, and samples analysed by LC-MS/MS. From a plot of ln peak area ratio (compound peak area/internal standard peak area) against time, the gradient of the line was determined. Subsequently, half-life (t1/2) and intrinsic clearance (CLint) were calculated.

Data set [3] is described as follows: Cell cytotoxicity (CC50). The data set is classed as cell-based. The following applies: human; mean of at least two experiments.
From the text: as §1, §2

Regarding `O=C(N[C@H]1N=C(c2ccccc2)c2cccc(F)c2NC1=O)c1c(-c2ccccc2Cl)nn2cccnc12` [Example 10, 2-(2-Chlorophenyl)-N-[(3S)-9-fluoro-2-oxo-5-phenyl-1,3-dihydro-1,4-benzodiazepin-3-yl]pyrazolo[1,5-a]pyrimidine-3-carboxamide], a half-maximal response in data set [1] (EC50) required 77 nM. In addition, the half-life at 1 μM in data set [2] (dog) is 6.33 h; in data set [2] (human), greater than 2.33 h; in data set [2] (rat), 1.83 h. This compound yielded a CC50 in data set [3] of 21100 nM.
`COc1ccc(F)c(-c2nn3cccnc3c2C(=O)N[C@H]2N=C(c3ccccc3)c3cccc(F)c3NC2=O)c1` [Example 8, 2-(2-Fluoro-5-methoxyphenyl)-N-[(3S)-9-fluoro-2-oxo-5-phenyl-1,3-dihydro-1,4-benzodiazepin-3-yl]pyrazolo[1,5-a]pyrimidine-3-carboxamide] displayed an EC50 in data set [1] of 54 nM. In data set [3], this compound had a CC50 greater than 25000 nM.
For `COc1cccc(-c2nn3cccnc3c2C(=O)N[C@H]2N=C(c3ccccc3)c3cccc(F)c3NC2=O)c1F` [Example 9, 2-(2-Fluoro-3-methoxyphenyl)-N-[(3S)-9-fluoro-2-oxo-5-phenyl-1,3-dihydro-1,4-benzodiazepin-3-yl]pyrazolo[1,5-a]pyrimidine-3-carboxamide] the same measures were 73 nM and greater than 25000 nM.
In data set [1], `CC1COCCN1c1ccc(-c2nn3cccnc3c2C(=O)N[C@H]2N=C(c3ccccc3)c3ccccc3NC2=O)cn1` (stereo partly drawn) [Example 67, 2-[6-(3-Methylmorpholin-4-yl)pyridin-3-yl]-N-[(3S)-2-oxo-5-phenyl-1,3-dihydro-1,4-benzodiazepin-3-yl]pyrazolo[1,5-a]pyrimidine-3-carboxamide] came in with an EC50 of 141 nM. The cytotoxic concentration (CC50) in data set [3] is greater than 25000 nM.
For `O=C(N[C@H]1N=C(c2ccccc2)c2cccc(F)c2NC1=O)c1c(-c2ccccc2F)nn2ccc(N3CCCC3)nc12` [Example 40, N-[(3S)-9-Fluoro-2-oxo-5-phenyl-1,3-dihydro-1,4-benzodiazepin-3-yl]-2-(2-fluorophenyl)-5-pyrrolidin-1-ylpyrazolo[1,5-a]pyrimidine-3-carboxamide] the same measures were 51 nM and greater than 25000 nM.
Taken in the same sequence, the figures for `Cc1ccc2nc(-c3cncc(F)c3)c(C(=O)N[C@H]3N=C(c4ccccc4)c4cccc(F)c4NC3=O)n2n1` [Example 102, N-[(3S)-9-fluoro-2-oxo-5-phenyl-1,3-dihydro-1,4-benzodiazepin-3-yl]-2-(5-fluoropyridin-3-yl)-6-methylimidazo[1,2-b]pyridazine-3-carboxamide] were 105 nM and greater than 19200 nM.
Taken in the same sequence, the figures for `CC(C)Oc1ccc(-c2nn3cccnc3c2C(=O)N[C@H]2N=C(c3ccccc3)c3ccccc3NC2=O)c(F)c1` [Example 15, 2-(2-Fluoro-4-propan-2-yloxyphenyl)-N-[(3S)-2-oxo-5-phenyl-1,3-dihydro-1,4-benzodiazepin-3-yl]pyrazolo[1,5-a]pyrimidine-3-carboxamide] were 91 nM and greater than 25000 nM.
As to `Cc1cc(-c2nn3cccnc3c2C(=O)N[C@H]2N=C(c3ccccc3)c3cccc(F)c3NC2=O)ccn1` [Example 52, N-[(3S)-9-fluoro-2-oxo-5-phenyl-1,3-dihydro-1,4-benzodiazepin-3-yl]-2-(2-methylpyridin-4-yl)pyrazolo[1,5-a]pyrimidine-3-carboxamide], the EC50 in data set [1] was 103 nM. This compound registered a CC50 in data set [3] greater than 25000 nM.
The compound `Cc1ccc2nc(-c3ccc(N4CCOCC4)nc3)c(C(=O)N[C@H]3N=C(c4ccccc4)c4ccccc4NC3=O)n2n1` [Example 104, 6-Methyl-2-(6-morpholin-4-ylpyridin-3-yl)-N-[(3S)-2-oxo-5-phenyl-1,3-dihydro-1,4-benzodiazepin-3-yl]imidazo[1,2-b]pyridazine-3-carboxamide] displayed an EC50 in data set [1] of 29 nM. Moreover, in data set [3], the CC50 is greater than 25000 nM.
Taken in the same sequence, the figures for `O=C(N[C@H]1N=C(c2ccccc2)c2cccc(F)c2NC1=O)c1c(-c2ccccc2F)nc2ccc(N3CCOCC3)nn12` [Example 79, N-[(3S)-9-Fluoro-2-oxo-5-phenyl-1,3-dihydro-1,4-benzodiazepin-3-yl]-2-(2-fluorophenyl)-6-morpholin-4-ylimidazo[1,2-b]pyridazine-3-carboxamide] were 26 nM and greater than 25000 nM.
Taken in the same sequence, the figures for `C[C@H]1COCCN1c1ccc(-c2nn3cccnc3c2C(=O)N[C@H]2N=C(c3ccccc3)c3cccc(F)c3NC2=O)cn1` (single isomer, unassigned) [Example 125, N-[(3S)-9-fluoro-2-oxo-5-phenyl-2,3-dihydro-1H-1,4-benzodiazepin-3-yl]-2-{6-[(3S*)-3-methylmorpholin-4-yl]pyridin-3-yl}pyrazolo[1,5-a]pyrimidine-3-carboxamide] were 87 nM and greater than 25000 nM.
Taken in the same sequence, the figures for `COc1ccc2nc(-c3ccccc3)c(C(=O)N[C@H]3N=C(c4ccccc4)c4ccccc4NC3=O)n2n1` [Example 111, 6-Methoxy-N-[(3S)-2-oxo-5-phenyl-1,3-dihydro-1,4-benzodiazepin-3-yl]-2-phenylimidazo[1,2-b]pyridazine-3-carboxamide] were 48 nM and greater than 25000 nM.
In the case of `O=C(N[C@H]1N=C(c2ccccc2)c2cccc(F)c2NC1=O)c1c(-c2ccccc2F)nc2ccc(N3CCC3)nn12` [Example 94, 6-(Azetidin-1-yl)-N-[(3S)-9-fluoro-2-oxo-5-phenyl-1,3-dihydro-1,4-benzodiazepin-3-yl]-2-(2-fluorophenyl)imidazo[1,2-b]pyridazine-3-carboxamide], a half-maximal effect in data set [1] (EC50) was put at 50 nM. Moreover, the CC50 in data set [3] is greater than 25000 nM.
For `COc1ccc(-c2nn3cccnc3c2C(=O)N[C@H]2N=C(c3ccccc3)c3cccc(F)c3NC2=O)cn1` [Example 76, N-[(3S)-9-fluoro-2-oxo-5-phenyl-1,3-dihydro-1,4-benzodiazepin-3-yl]-2-(6-methoxypyridin-3-yl)pyrazolo[1,5-a]pyrimidine-3-carboxamide] the same measures were 93 nM and greater than 25000 nM.
Taken in the same sequence, the figures for `O=C(N[C@H]1N=C(c2ccccc2)c2cccc(F)c2NC1=O)c1c(-c2ccccc2)nc2ccc(N3CCOCC3)nn12` [Example 83, N-[(3S)-9-fluoro-2-oxo-5-phenyl-1,3-dihydro-1,4-benzodiazepin-3-yl]-6-morpholin-4-yl-2-phenylimidazo[1,2-b]pyridazine-3-carboxamide] were 118 nM and greater than 25000 nM.
For `O=C(N[C@H]1N=C(c2ccccc2)c2ccccc2NC1=O)c1c(-c2ccccc2F)nn2ccc(N3CCCC3)nc12` [Example 41, 2-(2-Fluorophenyl)-N-[(3S)-2-oxo-5-phenyl-1,3-dihydro-1,4-benzodiazepin-3-yl]-5-pyrrolidin-1-ylpyrazolo[1,5-a]pyrimidine-3-carboxamide] the same measures were 80 nM and greater than 25000 nM.
Compound `Cc1ccc(-c2nn3cccnc3c2C(=O)N[C@H]2N=C(c3ccccc3)c3ccccc3NC2=O)cn1` [Example 49, 2-(6-Methylpyridin-3-yl)-N-[(3S)-2-oxo-5-phenyl-1,3-dihydro-1,4-benzodiazepin-3-yl]pyrazolo[1,5-a]pyrimidine-3-carboxamide] registered an EC50 in data set [1] of 100 nM. The CC50 in data set [3] is greater than 25000 nM.
